According to paper PMC9312958, “A Novel and Selective Dopamine Transporter Inhibitor, (S)-MK-26, Promotes Hippocampal Synaptic Plasticity and Restores Effort-Related Motivational Dysfunctions” (Biomolecules, 2022):

Experiments:
hDAT = biological target: T1, hDAT (Homo sapiens, UniProt Q01959); assay: Uptake inhibition assay in HEK293 cells expressing hDAT; assay type: cell-based
T1 construct: expressed in transfected cells
Description: (§1) Human embryonic kidney 293 cells (HEK293 cells) were cultivated in Dulbecco’s Modified Eagle Medium (DMEM), containing 10% heat-inactivated fetal calf serum (FCS; 100 mL/L), streptomycin (100 μg/100 mL) and penicillin ([…]). Geneticin (50 μg/mL) was added to select cells stably expressing the human isoforms of dopamine, norepinephrine and serotonin transporter (hDAT, hNET, and hSERT, respectively) as described earlier. Cell lines were maintained in culture in humidified atmosphere (37 °C, 5% CO2), and passaged when reached 80–90% confluency. Cells expressing the desired transporter were seeded the day before the experiment (40,000 cells per well) or two days before the experiments (20,000 cells per well) onto poly-D-lysine (PDL)-coated 96-well plates.
Uptake inhibition experiments were carried out as reported previously. Ninety-six-well plates containing hDAT-, hNET- or hSERT-expressing cells were washed with Krebs-HEPES buffer (KHB; 25 mM HEPES, 120 mM NaCl, 5 mM KCl, 1.2 mM CaCl2, and 1.2 mM MgSO4 and 5 mM D-glucose, pH = 7.3). Cells were then preincubated with increasing concentrations of the compound diluted in KHB for 6 min. Following the pre-incubation of the cells with the compound, the tritiated substrate (hDAT: 0.15 μM [^3H]DA; hNET: 0.05 μM [^3H]MPP^+; hSERT: 0.1 μM [^3H]5-HT) was added to the wells. The uptake was terminated by removal of tritiated substrate and by washing the cells with ice-cold KHB after 1 min (for hDAT and hSERT) or 3 min (for hNET). Thereafter, 200 μL of Ultima Gold^TM XR scintillation cocktail (PerkinElmer, MA, USA) was added, the plates were shaken and the radioactivity accumulated into the cells determined in a Wal-lac 1450 MicroBeta TriLux Liquid Scintillation Counter & Lumi (GMI, Ramsey, MN, USA). Non- specific tritiated substrate uptake was measured in the presence of 100 μM cocaine (for hDAT and hNET) or 10 μM paroxetine (for hSERT), and subtracted from the data. Uptake in the presence of test drugs was normalized to the uptake in the presence of the vehicle.

hSERT = biological target: T2, hSERT (Homo sapiens, UniProt P31645); assay: Uptake inhibition assay in HEK293 cells expressing hSERT; assay type: cell-based
T2 construct: expressed in transfected cells
Description: as §1
Uptake inhibition experiments were carried out as reported previously. […] Thereafter, 200 μL of Ultima Gold^TM XR scintillation cocktail (PerkinElmer, MA, USA) was added, the plates were shaken and the radioactivity accumulated into the cells determined in a Wal-lac 1450 MicroBeta TriLux Liquid Scintillation Counter & Lumi (GMI, Ramsey, MN, USA). Non- specific tritiated substrate uptake was measured in the presence of 100 μM cocaine (for hDAT and hNET) or 10 μM paroxetine (for hSERT), and subtracted from the data. […]

aged rats = assay: Hole-board test, spatial reference memory; assay type: in vivo, rat
Text: In order to examine the effect of (S)-MK-26 on hippocampus-dependent spatial reference memory, we used the standardized hole-board test (animal experiments conducted under BMBWF-66.009/235/V/3b/2018 regulations) following published procedures with minor modifications. In brief, food restriction and controlled body weight loss with it (until steadily reaching 85% of the average body weight sustained during ad libitum feeding) was initially imposed for this experimental study as cognitive/behavioral incentive. A black plastic hole-board maze (1 m^2 base) with 16 symmetrically distributed holes located at the floor (7 cm in diameter and depth) and walls enriched with spatial cues was used (See Figure 4). Accessory distal cues were also visible in the walls of the experimental room. Dustless precision food pellets (45 mg, Bioserv®, Flemington, NJ, USA) were placed as motivational baits in four randomly designated holes, unchanged throughout the test. Several inaccessible pellets were also placed all across the entire area immediately below all the holes of the board maze in order to induce a uniform distribution of the food smell and thus preventing the acute orientating response of the sense of smell from prevailing over the evocation of spatial memories associated with the location of accessible food. […] The behavioral experiments were conducted in a noise-isolated room; all sessions were monitored by a distal overhead conventional digital camera and behavioral data digitalized using the ANY-Maze video tracking system (Stoelting Europe, 8-Terenure Place, Terenure, Dublin, D6W Y006, Ireland). Spatial memory performance was assessed from the number of errors made by the animal, that is, the number of times the animals visit unbaited holes (reference memory). […] Thus, from these measurements, an RMI value of “1” would constitute quantifiable indicator of optimal reference memory, with a performance without empty-hole visiting mistakes. […]

T1 sequence (Q01959 whole entry): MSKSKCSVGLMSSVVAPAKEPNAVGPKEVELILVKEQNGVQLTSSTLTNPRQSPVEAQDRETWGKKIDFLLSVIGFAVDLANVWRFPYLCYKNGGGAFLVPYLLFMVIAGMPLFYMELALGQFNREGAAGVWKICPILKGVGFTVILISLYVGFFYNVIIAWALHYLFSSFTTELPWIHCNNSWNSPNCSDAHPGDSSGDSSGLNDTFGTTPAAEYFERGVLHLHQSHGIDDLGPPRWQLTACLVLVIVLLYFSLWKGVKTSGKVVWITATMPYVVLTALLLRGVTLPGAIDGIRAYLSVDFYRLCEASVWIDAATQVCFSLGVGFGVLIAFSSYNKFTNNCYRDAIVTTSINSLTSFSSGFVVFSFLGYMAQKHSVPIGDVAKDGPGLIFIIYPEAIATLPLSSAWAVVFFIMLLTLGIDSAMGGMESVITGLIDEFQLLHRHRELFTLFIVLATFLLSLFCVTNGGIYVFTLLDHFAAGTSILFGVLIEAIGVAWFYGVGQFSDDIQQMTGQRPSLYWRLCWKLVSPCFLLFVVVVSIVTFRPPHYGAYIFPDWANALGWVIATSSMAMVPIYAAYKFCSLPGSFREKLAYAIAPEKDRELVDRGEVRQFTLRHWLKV
T2 sequence (P31645 whole entry): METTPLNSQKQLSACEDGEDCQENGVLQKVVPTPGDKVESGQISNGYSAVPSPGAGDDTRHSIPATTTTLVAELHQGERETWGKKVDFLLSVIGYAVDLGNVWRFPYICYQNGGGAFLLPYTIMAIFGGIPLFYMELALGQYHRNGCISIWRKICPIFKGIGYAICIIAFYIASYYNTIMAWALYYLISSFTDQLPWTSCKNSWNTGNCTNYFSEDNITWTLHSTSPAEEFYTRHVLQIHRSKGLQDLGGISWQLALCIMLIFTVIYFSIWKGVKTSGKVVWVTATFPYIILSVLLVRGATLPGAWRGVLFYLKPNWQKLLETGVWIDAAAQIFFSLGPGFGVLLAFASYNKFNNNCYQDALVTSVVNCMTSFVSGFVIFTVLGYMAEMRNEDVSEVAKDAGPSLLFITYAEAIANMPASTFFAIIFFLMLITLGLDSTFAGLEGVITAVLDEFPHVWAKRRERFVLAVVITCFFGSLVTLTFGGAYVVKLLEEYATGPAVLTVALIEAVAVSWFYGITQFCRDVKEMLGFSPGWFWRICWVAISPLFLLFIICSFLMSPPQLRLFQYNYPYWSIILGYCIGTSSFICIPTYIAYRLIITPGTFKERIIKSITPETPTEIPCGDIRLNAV

With `[O-][S@@+](Cc1cncs1)C(c1cccc(Cl)c1)c1cccc(Cl)c1` [(S)-MK-26, (S)-5-(((B(3-chlorophenyl)methyl)sulphinyl)methyl)thiazole] the IC50 (hDAT) was 0.56 µM, the “fold lower hDAT IC50 compared to (R)-MK-26” value (hDAT; uptake inhibition, HEK293) was “approximately 65 fold” and the “fold lower hDAT IC50 compared to (R)-Modafinil” value (hDAT; uptake inhibition, HEK293) was 10 fold. The IC50 (hSERT) was greater than 1000 µM, the “spatial reference memory (reference memory index)” value (aged rats; 10 mg/kg i.p. daily, vs Kolliphor) was “slight and transitory—yet statistically significant—enhancement of spatial reference memory” and the “exploratory activity (distance travelled) during H3 habituation session” value (aged rats; 10 mg/kg i.p., p = 0.0053) was “induced an increase in ecology-like exploratory activity”. The “number of hole dips” value (aged rats; 10 mg/kg i.p., vs Kolliphor) was “No differences”.
